The source of these data is patent US20170115276A1, “SPECIFIC MODULATORS OF CONNEXIN HEMICHANNELS” (PONTIFICIA UNIVERSIDAD CATÓLICA DE CHILE, priority 2014, published 2017).

Assay [1] has as its system hemichannels formed by connexins (26 or 43). As to the kind of experiment: In vitro test of blocking the opening/activation of hemichannels; permeability tracer (ethidium) uptake in transfected HeLa cells. The assay is classed as cell-based, Mouse. To be noted: for % Inhibition Hemichannel activity (Cx26 o 43): inhibition of the permeability tracer at a concentration of 5 μM, HeLa cells transfected with connexins 26 or 43. On the procedure:
The compounds are tested in experiments based on cells that are deficient in the expression of hemichannels and transfected with different connexins in order to evaluate and/or confirm their capacity of modulating the transport through the cellular membrane. The transport of permeability tracing molecules is evaluated and compared with the inhibitors of channels formed by connexins known, such as beta glycyrrhetinic acid (BGA) and carbenoxolone (CBX).
(§1) The cells are incubated in an extracellular medium without divalent cations in order to increase the opening probability of hemichannels formed by connexins. In addition, as negative control parental cells not expressing hemichannels and cells transfected with panexine 1 and mechanically stimulated to induce the opening of the hemichannels formed by panexine 1.
In vitro test of blocking the opening/activation of hemichannels formed by connexins (26 or 43).
The capacity of the different tracing molecules was tested in vitro to evaluate the capacity of the compounds of reducing the transport of these molecules using the HeLa cells transfected with connexins 26 or 43.
(§2) […] HeLa cells transfected with connexins 26 or 43 are used. In order to evaluate the activity of each compound over the connexin hemichannels, 10^3 HeLa cells transfected with connexins are shown by well in multi-well ([…]) plates 24 h before each experiment. Then, the cells are washed in a Locke solution that contains normal levels of divalent cations (Ca^2+ and Mg^2+) or a cation-free divalent Locke solution that contains 5 μm of ethidium bromide. Parallel to this, the cells are treated with different concentrations of each candidate compound and incubated for 5 min.
(§3) As indicated by the scheme of FIG. 2, the HeLa cells transfected with connexin 43 (Cx43) are shown in multi-well (96) plates and after 24 h the ethidium uptake is evaluated in the presence of cation free solution (DCFS) in the presence or absence of the compound in question. The ethidium uptake is evaluated as the fluorescence emitted measured with a fluorometer. If the value of fluorescence in the presence of the inhibitor is equal or close to that measured in cells bathed with a solution that contains divalent cations, the compound corresponds to an inhibitor of hemichannels formed by connexins. On the contrary, if the fluorescence value emitted by cells exposed to a possible inhibitor in DCFS is equal to that of cells bathed only with DCFS (without the compound in question), the compound is not an inhibitor of hemichannels formed by connexins. The same test is performed with different concentrations of each compound in order to determine the minimum effective concentration (EC50).

In assay [2] the target is T1, gap junction channels formed by connexin 43 (Mus musculus, UniProt P23242).
T1 construct: expressed in transfected cells; host or cells: HeLa
T1 sequence (P23242 whole entry): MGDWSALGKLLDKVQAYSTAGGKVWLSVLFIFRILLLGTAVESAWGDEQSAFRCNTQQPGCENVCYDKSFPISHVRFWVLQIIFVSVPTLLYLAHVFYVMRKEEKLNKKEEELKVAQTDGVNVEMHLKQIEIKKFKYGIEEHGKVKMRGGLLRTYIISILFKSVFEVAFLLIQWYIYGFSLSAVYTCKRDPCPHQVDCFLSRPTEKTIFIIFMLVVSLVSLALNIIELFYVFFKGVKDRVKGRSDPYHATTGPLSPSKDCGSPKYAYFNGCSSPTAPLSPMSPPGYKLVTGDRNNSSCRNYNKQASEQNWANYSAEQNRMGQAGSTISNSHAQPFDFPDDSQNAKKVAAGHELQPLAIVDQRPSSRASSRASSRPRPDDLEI
In words: Cellular coupling assessed with the transfer of ethidium in HeLa-Cx43 cells. The assay is classed as cell-based. To be noted: for effect on gap junction channels (in words): connexin isoform and concentration not stated. On the procedure:
FIG. 6. Cellular coupling assessed with the transfer of ethidium. A. Effect of the different inhibitors in HeLa-Cx43 cells (transfected with connexin 43). B. Cellular coupling index.
(§4) The molecules that inhibit the hemichannels formed by connexins are evaluated by their action on the hemichannels formed by panexine 1. The molecules inhibiting the hemichannels formed by connexins in the nanomolar range are studied as possible inhibitors of intercellular binding channels using the coupling technique to dyes and through electrophysiology using double fixing of voltage.

The target of assay [3] is T2, hemichannels formed by panexine 1 (Panx1) (Homo sapiens, UniProt Q96RD7).
T2 construct: expressed in transfected cells
T2 sequence (Q96RD7 whole entry, species assumed): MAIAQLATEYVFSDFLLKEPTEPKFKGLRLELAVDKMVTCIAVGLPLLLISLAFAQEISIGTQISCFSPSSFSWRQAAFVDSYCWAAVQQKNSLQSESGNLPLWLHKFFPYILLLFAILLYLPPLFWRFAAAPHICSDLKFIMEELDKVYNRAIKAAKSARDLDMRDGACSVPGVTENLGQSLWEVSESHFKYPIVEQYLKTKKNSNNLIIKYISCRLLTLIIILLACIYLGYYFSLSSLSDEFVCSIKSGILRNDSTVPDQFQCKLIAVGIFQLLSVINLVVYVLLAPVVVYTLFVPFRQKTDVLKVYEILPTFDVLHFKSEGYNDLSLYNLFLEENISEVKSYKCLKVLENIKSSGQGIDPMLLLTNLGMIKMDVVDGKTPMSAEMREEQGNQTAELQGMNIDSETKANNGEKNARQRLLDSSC
In words: Functional status of panexine 1 hemichannels activated by mechanic stress. The assay is classed as cell-based. The settings on record: for effect on hemichannels formed by panexines (in words): concentration not given. On the procedure:
FIG. 7. Functional status of the hemichannels formed by panexine1 (Panx1) driven by mechanic stress.
as §1
Therefore, the compound is an inhibitor of hemichannels formed by highly specific conexins.

Assay [4] concerns the target T3, hemichannels formed by connexin 43 (Mus musculus, UniProt P23242).
T3 construct: expressed in transfected cells; host or cells: HeLa
As to the kind of experiment: Ethidium uptake in HeLa Cx43-EGFP cells induced by divalent cation free solution (DCFS). It counts as cell-based. The settings on record: for ethidium uptake speed or rate by minute (dye uptake) induced by DCFS: 10 nM. As for the experimental part:
FIG. 3. Ethidium uptake in HeLa Cx43-EGFP. Effect of DCFS. A: Cells in culture. B: Ethidium uptake chart in HeLa Cx43-EGFP. C: extracelular DCSF induces the inlet of ethidium in Cx43; the effect of DCSF is shown, which was blocked by the inhibiting molecule (MX) (10 nM), (P<0.05, n=4).
as §2
as §3, with “The same test is performed with different concentrations of each compound in order to determine the minimum effective concentration (EC50).” left out
In FIG. 3, the upper left panel (A) corresponds to a phase microphotograph, where the HeLa cells can be noted that express connexin 43 conjugated with green fluorescent protein (EGFP) present in the microscopic field. […] Clearly, the inhibiting molecule inhibits the activity of hemichannels evaluated as dye uptake.

In assay [5] the target is T3, hemichannels formed by connexin 43. As to the kind of experiment: Unit currents of hemichannels in HeLa cells bathed in saline solution without Ca2+. To be noted: 10 nM. The assay is classed as cell-based. The text has this: FIG. 4. Unit streams of the hemichannels formed by connexin 43 in HeLa cells bathed in saline solution without calcium ion (or Ca^2+) and in the presence of EGTA.
Should the molecules not inhibit the intercellular channels formed by connexins in the millimolar range and not affect the hemichannels formed by panexine 1, its inhibiting effect of currents of hemichannels formed by connexins using the voltage fixing methodology in the modality of full cell.
The unit currents of the hemichannels formed by connexin 43 are very frequent in the HeLa cells bathed with a saline solution without the calcium ion (or Ca^2+) (see FIG. 4, the two upper tracings).

For assay [6], the target named is T4, gap junction channels formed by connexin 26 (Mus musculus, UniProt Q00977).
T4 construct: expressed in transfected cells; host or cells: HeLa
As to the kind of experiment: Incidence of cellular coupling evaluated with microinjections of Lucifer yellow. It counts as cell-based. The settings on record: 1 nM; Lucifer yellow microinjection. On the procedure: FIG. 5. Incidence percentage of coupling according to the time.
as §4
FIG. 5 depicts that the cells transfected with connexin 26 are very well coupled to gap junction channels. The incidence of the cellular coupling evaluated with microinjections of Lucifer yellow is close to 100% (black boxes).

Where [7] appears, read: in vitro hemichannel blocking, connexins 26 or 43.

T3 sequence (P23242 whole entry): as the sequence (P23242 whole entry) above

For the compound `O=C(O[C@@H](C(=O)c1ccc(Cl)cc1)c1ccccc1)c1ccc2ccccc2n1` [Example 1 (A), (R)-2-(4-chlorofenil)-2-oxo-1-fenilethylquinoline-2-carboxylate], in assay [1], the “inhibition of hemichannels formed by connexins (in words)” value is recorded as “potent inhibitors” and the “% Inhibition Hemichannel activity (Cx26 o 43)” value amounted to 0%. In addition, in assay [2], the “effect on gap junction channels (in words)” value was “do not affect”. In assay [3], the “effect on hemichannels formed by panexines (in words)” value is “do not affect”.
With `Clc1ccc(N2CCN(CCCN3CCN(c4ccc(Cl)cc4)CC3)CC2)cc1` [Example 2 (B), 1,3-bis(4-(4-chlorofenil)piperazin-1-il)propane], the “% Inhibition Hemichannel activity (Cx26 o 43)” value in assay [1] stood at 20%.
With `O=C(O)C(Oc1ccc(-c2ccccc2)cc1)Oc1ccc(-c2ccccc2)cc1` [Example 3 (C), Acetic 2,2-bis([1,1′-bifenil]-4-iloxi) acid], the “% Inhibition Hemichannel activity (Cx26 o 43)” value in assay [1] was 0%.
As for `C[C@]12C[C@@H](F)C(=O)C[C@@H]1CC[C@@H]1[C@@H]2CC[C@]2(C)[C@@H](OC(=O)c3ccccc3)CC[C@@H]12` [Example 4 (D), (2R,5S,8R,9S,10S,13S,14S,17S)-2-fluoro-10,13-dimethyl-3-oxohexadecahydro-1H-ciclopenta[a]fenantren-17-il benzoate], in assay [1], the “inhibition of hemichannels formed by connexins (in words)” value is “potent inhibitors” and the “% Inhibition Hemichannel activity (Cx26 o 43)” value was 100%. In assay [1] (setting [7]), this compound gave an IC50 of 0.02 µM and an efficacy of 100%. Moreover, in assay [2], the “effect on gap junction channels (in words)” value is on record as “do not affect”. In assay [3], the “effect on hemichannels formed by panexines (in words)” value is reported as “do not affect”.
As for `CC(=O)O[C@H]1CC[C@@]2(C)[C@@H](CC[C@@H]3[C@@H]2CC[C@]2(C)[C@@H](OC(=O)C4CCCCC4)CC[C@@H]32)C1` [Example 5 (E), (3S,5S,8R,9S,10S,13S,14S,17S)-3-acetoxi-10,13-dimethylhexadecahydro-1H-ciclopenta[a]fenantren-17-il ciclohexanocarboxilate], the efficacy in assay [1] (setting [7]) turned out to be 100%. The “% Inhibition Hemichannel activity (Cx26 o 43)” value in assay [1] turned out to be 100%.
In the case of `C#C[C@]1(O)CC[C@H]2[C@@H]3CC=C4C[C@@H](OC(=O)CCC5CCCCC5)CC[C@]4(C)[C@H]3CC[C@@]21C` [Example 6 (F), (3S,8R,9S,10R,13S,14S,17R)-17-ethynil-17-hydroxi-10,13-dimethyl-2,3,4,7,8,9,10,11,12,13,14,15,16,17-tetradecahydro-1H-ciclopenta[a]fenantren-3-yl 3-ciclohexilpropanoate], in assay [1], the “% Inhibition Hemichannel activity (Cx26 o 43)” value is 0%.
Still for that read-out and setting: then `Cc1cc(N2CCOCC2)nc2ccc(Cc3ccc4nc(N5CCOCC5)cc(C)c4c3)cc12` [Example 7 (G), bis(4-methyl-2-morfolinquinoline-6-yl)methane], with 0%.
Take `CC1(C)[C@@H](OC(=O)CCC(=O)O)CC[C@]2(C)[C@H]3C(=O)C=C4[C@@H]5C[C@@](C)(C(=O)O)CC[C@]5(C)CC[C@@]4(C)[C@]3(C)CC[C@@H]12` [carbenoxolone, reference compound]: the “functional status of Panx1 hemichannels activated by mechanic stress” value in assay [3] (5 μm) is given as “totally blocked”.
On to `O=C(O[C@@H](C(=O)c1ccc(Cl)cc1)c1ccccc1)c1ccc2ccccc2n1` [compound 4, (R)-2-(4-chlorofenil)-2-oxo-1-fenilethlyquinoline-2-caroxilate], for which the figures for the “ethidium uptake speed or rate by minute (dye uptake) induced by DCFS” value in assay [4] and in assay [4] (listed as MX) were “completely inhibited” and “blocked”, respectively. Further, the “reversal of the inhibition with the washing of DCFS” value in assay [4] (after 10 nM) is listed as “partially reversed”. The “activity (unit currents) of the hemichannels formed by connexin 43” value in assay [5] was “drastically inhibited”. Moreover, the “coupling incidence, gap junction channels formed by connexin 26” value in assay [6] was “does not significantly reduce”. Besides, the “cellular coupling mediated with gap junction channels formed by connexin 43” value in assay [2] (1 nM, ethidium transfer, HeLa-Cx43) is “does not inhibit”. The “functional status of Panx1 hemichannels activated by mechanic stress” value in assay [3] (100 nM) is recorded as “not inhibited”.
